Where two headings read alike, the source gives them in different places.
Assays:
[1] = test system: HCV genotype 1b (Con1) replicon in HUH-7 cells; assay: HCV replicon luciferase reporter assay, genotype 1b; format: cell-based; details: Hepatitis C virus, Huh-7, 72 h, 3 days incubation
In short: (§1)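 Replicon inhibition for both genotypes was measured as Renilla luciferase signal (EnduRen, 7.5 μM final, 2 h) after 3-day, 37° C exposure of replicon-bearing HUH-7 cells in 4% FCS DMEM, 0.5% DMSO. The 1b construct carries S1179I; the 1a H77 construct carries P1496L and S2204I. Twenty-point, 3-fold dilutions were fitted four-parametrically for EC50, and CC50 was taken from multiplexed Cell Titer-Blue.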

[2] = test system: HCV genotype 1a (H77 strain) replicon in HUH-7 cells; assay: HCV replicon luciferase reporter assay, genotype 1a; format: cell-based; details: Hepatitis C virus, Huh-7, 72 h, 3 days incubation
In short: as §1

[3] = HCV genotype 1b replicon luciferase assay, range class, read-out: LE_1b (EC50, range)
[4] = HCV genotype 1a replicon luciferase assay, range class, read-out: LE_1a (EC50, range)
[5] = HCV genotype 1b replicon luciferase, read-out: LE_1b (EC50, range)
[6] = HCV genotype 1a replicon luciferase, read-out: LE_1a (EC50, range)

Row | SMILES | EC50 [1, 3] [nM] | EC50 [2, 4] [nM] | EC50 ([1]; HCV genotype 1b replicon luciferase, read-out: LE_1b (EC50)) [nM] | EC50 [1, 5] [nM] | EC50 ([2]; HCV genotype 1a replicon luciferase, read-out: LE_1a (EC50)) [nM] | EC50 [2, 6] [nM]
1 | COc1ccc2c(O[C@@H]3C[C@H]4C(=O)N[C@]5(C(=O)NS(=O)(=O)C6CC6)C[C@H]5/C=C\CC[C@@H](C)C[C@@H](C)[C@H](NC(=O)O[C@@H]5C[C@@H]6C[C@@H]6C5)C(=O)N4C3)nc(-c3ccc(OC)c(F)c3)cc2c1 [Compound 3058, (1R,3r,5S)-bicyclo[3.1.0]hexan-3-yl((2R,6S,7R,9R,13aS,14aR,16aS,Z)-14a-((cyclopropylsulfonyl)carbamoyl)-2-((3-(3-fluoro-4-methoxyphenyl)-6-methoxyisoquinolin-1-yl)oxy)-7,9-dimethyl-5,16-dioxo-1,2,3,5,6,7,8,9,10,11,13a,14,14a,15,16,16a-hexadecahydrocyclopropa[e]pyrrolo[1,2-a][1,4]diazacyclopentadecin-6-yl)carbamate] | < 5.46 | < 5.46 |  |  |  | 
2 | [2H]C([2H])([2H])C(OC(=O)N[C@@H]1C(=O)N2C[C@H](Oc3nnc(OC)c4ccccc34)C[C@H]2C(=O)N[C@]2(C(=O)NS(=O)(=O)C3(C)CC3)C[C@H]2/C=C\CC[C@H](C)C[C@H]1CC)(C([2H])([2H])[2H])C(F)(F)F [Compound 5019] |  |  | 3.65 | < 5.46 | 7.27 | 4.82 to 103
3 | CC[C@@H]1C[C@H](C)CC/C=C\[C@@H]2C[C@@]2(C(=O)NS(=O)(=O)C2(C)CC2)NC(=O)[C@@H]2C[C@@H](Oc3nc(-c4ccc(OC(C)C)cn4)cc4cc(OC)ccc34)CN2C(=O)[C@H]1NC(=O)OC(C)(C)C(F)(F)F [Compound 5489, 1,1,1-trifluoro-2-methylpropan-2-yl((2R,6S,7R,9R,13aS,14aR,16aS,Z)-7-ethyl-2-((3-(5-isopropoxypyridin-2-yl)-6-methoxyisoquinolin-1-yl)oxy)-9-methyl-14a-(((1-methylcyclopropyl)sulfonyl)carbamoyl)-5,16-dioxo-1,2,3,5,6,7,8,9,10,11,13a,14,14a,15,16,16a-hexadecahydrocyclopropa[e]pyrrolo[1,2-a][1,4]diazacyclopentadecin-6-yl)carbamate] |  |  |  | 1.01 to 5 |  | 1.01 to 5
4 | CC[C@@H]1C[C@H](C)CC/C=C\[C@@H]2C[C@@]2(C(=O)NS(=O)(=O)C2CC2)NC(=O)[C@@H]2C[C@@H](Oc3nccc4c(OC)cccc34)CN2C(=O)[C@H]1NC(=O)NC(C)(C)C [Compound 3030, (2R,6S,7R,9R,13aS,14aR,16aS,Z)-6-(3-(tert-butyl)ureido)-N-(cyclopropylsulfonyl)-7-ethyl-2-((5-methoxyisoquinolin-1-yl)oxy)-9-methyl-5,16-dioxo-1,2,3,5,6,7,8,9,10,11,13a,14,14a,15,16,16a-hexadecahydrocyclopropa[e]pyrrolo[1,2-a][1,4]diazacyclopentadecine-14a-carboxamide] | < 5.46 | < 5.46 |  |  |  | 
5 | COc1cnc(O[C@@H]2C[C@H]3C(=O)N[C@]4(C(=O)NS(=O)(=O)C5(CF)CC5)C[C@H]4/C=C\CC[C@H](C)C[C@@H](C)[C@H](NC(=O)OC4(C(F)(F)F)CCOC4)C(=O)N3C2)c2ccccc12 (stereo partly drawn) [Compound 1065, 3-(trifluoromethyl)tetrahydrofuran-3-yl((2R,6S,7R,9S,13aS,14aR,16aS,Z)-14a-(((1-(fluoromethyl)cyclopropyl)sulfonyl)carbamoyl)-2-((4-methoxyisoquinolin-1-yl)oxy)-7,9-dimethyl-5,16-dioxo-1,2,3,5,6,7,8,9,10,11,13a,14,14a,15,16,16a-hexadecahydrocyclopropa[e]pyrrolo[1,2-a][1,4]diazacyclopentadecin-6-yl)carbamate] | < 5.46 | 4.82 to 103 |  |  |  | 
6 | CCn1nc(O[C@@H]2C[C@H]3C(=O)N[C@]4(C(=O)NS(=O)(=O)C5CC5)C[C@H]4/C=C\CC[C@@H](C)C[C@@H](C)[C@H](NC(=O)c4ccc(N(C)C)cc4)C(=O)N3C2)c2ccccc2c1=O [Compound 5074, (2R,6S,7R,9R,13aS,14aR,16aS,Z)—N-(cyclopropylsulfonyl)-6-(4-(dimethylamino)benzamido)-2-((3-ethyl-4-oxo-3,4-dihydrophthalazin-1-yl)oxy)-7,9-dimethyl-5,16-dioxo-1,2,3,5,6,7,8,9,10,11,13a,14,14a,15,16,16a-hexadecahydrocyclopropa[e]pyrrolo[1,2-a][1,4]diazacyclopentadecine-14a-carboxamide] |  |  |  | 4.82 to 103 |  | 4.82 to 103

Reference: patent publication US9499550B2 (BRISTOL-MYERS SQUIBB COMPANY, priority 2012, dated 2016)
